Assay results published in PubChem BioAssay (NCI).
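These data come from cells grown in 96-well plates and exposed to compound for 48 hours at five concentrations. GI50 = concentration required for 50% inhibition of growth. TGI: total growth inhibition.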

Assays:
Assay in all cases: growth of human tumour cells (NCI), 48 h
CAKI-1 renal = system: CAKI-1 renal
HCC-2998 colon = system: HCC-2998 colon
HCT-116 colon = system: HCT-116 colon
HOP-62 NSCLC = system: HOP-62 NSCLC
NCI-H226 lung = system: NCI-H226 lung
NCI-H522 lung = system: NCI-H522 lung
SK-MEL-5 melanoma = system: SK-MEL-5 melanoma
SNB-75 CNS = system: SNB-75 CNS
TK-10 renal = system: TK-10 renal
UACC-257 melanoma = system: UACC-257 melanoma

## O=C1/C(=C\c2ccc(Cl)cc2)CN(C(=O)c2ccccc2)C/C1=C\c1ccc(Cl)cc1
CAKI-1 renal
  GI50: 8.45 µM
  TGI: > 100 µM
HCC-2998 colon
  GI50: 2.03 µM
  TGI: 3.97 µM
HCT-116 colon
  GI50: 0.337 µM
  TGI: 1.04 µM
HOP-62 NSCLC
  GI50: 2.45 µM
  TGI: 6.41 µM
NCI-H226 lung
  TGI: > 20.1 µM
NCI-H522 lung
  GI50: 3.22 µM
  TGI: 10.8 µM
SK-MEL-5 melanoma
  GI50: 2.39 µM
  TGI: 6.78 µM
SNB-75 CNS
  GI50: 3.77 µM
  TGI: > 71.8 µM
TK-10 renal
  GI50: 3.59 µM
  TGI: 14.1 µM
UACC-257 melanoma
  GI50: 5.51 µM
  TGI: 33.9 µM

## O=C(NC(=S)Nc1ccc(-c2nc3ccccc3[nH]2)cc1)c1ccc2ccccc2c1
CAKI-1 renal
  GI50: 1.96 µM
  TGI: 4.58 µM
HCC-2998 colon
  GI50: 7.15 µM
  TGI: > 100 µM
HCT-116 colon
  GI50: 2.56 µM
  TGI: 7.33 µM
HOP-62 NSCLC
  GI50: 2.41 µM
  TGI: 5.58 µM
NCI-H226 lung
  GI50: 4.36 µM
  TGI: 25.4 µM
NCI-H522 lung
  GI50: 18.9 µM
  TGI: > 100 µM
SK-MEL-5 melanoma
  GI50: 3.63 µM
  TGI: > 100 µM
SNB-75 CNS
  GI50: 1.46 µM
  TGI: 3.38 µM
TK-10 renal
  GI50: 3.33 µM
  TGI: 8.44 µM
UACC-257 melanoma
  GI50: 5.59 µM
  TGI: > 100 µM

## COc1cc2cc(Oc3ccc(NC(=O)Nc4ccc(F)c(C(F)(F)F)c4)cc3)c(C)nc2cc1OCCN1CCOCC1
CAKI-1 renal
  GI50: 2.06 µM
  TGI: 9.55 µM
HCC-2998 colon
  GI50: 5.34 µM
  TGI: 16.7 µM
HCT-116 colon
  GI50: 1.11 µM
  TGI: 11.2 µM
HOP-62 NSCLC
  GI50: 3.99 µM
  TGI: 20.5 µM
NCI-H226 lung
  GI50: 2.55 µM
  TGI: 13.2 µM
NCI-H522 lung
  GI50: 2.04 µM
  TGI: 9.43 µM
SK-MEL-5 melanoma
  GI50: 1.14 µM
  TGI: 2.36 µM
SNB-75 CNS
  GI50: 1.96 µM
  TGI: 7.45 µM
TK-10 renal
  GI50: 4.94 µM
  TGI: 25.1 µM
UACC-257 melanoma
  GI50: 1.75 µM
  TGI: 5.17 µM

## O=C1NC(=N[C@@H]2C[C@H]2c2ccccc2)S/C1=C\c1ccc2ncccc2c1
CAKI-1 renal
  GI50: 1.03 µM
  TGI: 6.46 µM
HCC-2998 colon
  GI50: 1.93 µM
  TGI: 18.4 µM
HCT-116 colon
  GI50: 0.839 µM
  TGI: 5.72 µM
HOP-62 NSCLC
  GI50: 1.67 µM
  TGI: 6.38 µM
NCI-H226 lung
  GI50: 3.18 µM
  TGI: 10.2 µM
NCI-H522 lung
  GI50: 0.776 µM
  TGI: 3.12 µM
SK-MEL-5 melanoma
  GI50: 3.93 µM
  TGI: 9.2 µM
SNB-75 CNS
  GI50: 1.02 µM
  TGI: 5.17 µM
TK-10 renal
  GI50: 0.899 µM
  TGI: 5.58 µM
UACC-257 melanoma
  GI50: 5.17 µM
  TGI: 18.9 µM

## O=C(CSc1nc2ccc([N+](=O)[O-])cc2[nH]1)Nc1ccc([N+](=O)[O-])cc1
CAKI-1 renal
  GI50: 2.08 µM
  TGI: 7.67 µM
HCC-2998 colon
  GI50: 3 µM
  TGI: 15.3 µM
HCT-116 colon
  GI50: 2.7 µM
  TGI: > 32.6 µM
HOP-62 NSCLC
  GI50: 2.32 µM
  TGI: 12.1 µM
NCI-H226 lung
  GI50: 2 µM
  TGI: 7.88 µM
NCI-H522 lung
  GI50: 1.69 µM
  TGI: 9.01 µM
SK-MEL-5 melanoma
  GI50: 1.2 µM
  TGI: 2.54 µM
SNB-75 CNS
  GI50: 1.84 µM
  TGI: 6.95 µM
TK-10 renal
  GI50: 3.47 µM
  TGI: 11 µM
UACC-257 melanoma
  GI50: 1.75 µM
  TGI: 6.71 µM

## CCN1C2=C(SC(=S)C1=C1SC(C(=O)c3ccccc3)=C(C(=O)c3ccccc3)S1)SC(=Nc1ccccc1)C2=O
CAKI-1 renal
  GI50: 48 µM
  TGI: > 100 µM
HCC-2998 colon
  GI50: > 100 µM
  TGI: > 100 µM
HCT-116 colon
  GI50: 2.66 µM
  TGI: 38.7 µM
HOP-62 NSCLC
  GI50: 21.7 µM
  TGI: 76.2 µM
NCI-H226 lung
  GI50: 25.7 µM
  TGI: > 100 µM
NCI-H522 lung
  GI50: 5.43 µM
  TGI: > 20.8 µM
SK-MEL-5 melanoma
  GI50: > 70.8 µM
  TGI: > 100 µM
SNB-75 CNS
  GI50: 12.6 µM
  TGI: > 63.4 µM
TK-10 renal
  GI50: 13.3 µM
  TGI: > 83.7 µM
UACC-257 melanoma
  GI50: > 100 µM
  TGI: > 100 µM
